From patent US7754741B2, “Pyridine derivatives as fungicidal compounds” (Bayer Cropscience S.A., priority 2003, dated 2010)

Experiments:
[1] = system: Alternaria brassicae; assay: In vivo test on Alternaria brassicae (leaf spot of crucifers); conditions: Alternaria brassicae; dose 330 ppm; radish plants sprayed 24 hours before contamination; grading 6 to 7 days after contamination vs control plants; read-out: protection (good (at least 50%) to total)
Protocol: In Vivo Test on Alternaria brassicae (Leaf Spot of crucifers)
(§1) The active ingredient tested is prepared by potter homogenisation in a concentrated suspension type formulation at 100 g/l. This suspension is then diluted with water to obtain the desired active material concentration.
Radish plants (Pernot variety) in starter cups, sown on a 50/50 peat soil-pozzolana substrate and grown at 18-20° C., are treated at the cotyledon stage by spraying with the aqueous suspension described above.
(§2) Plants, used as controls, are treated with an aqueous solution not containing the active material.
After 24 hours, the plants are contaminated by spraying them with an aqueous suspension of Alternaria brassicae spores (40,000 spores per cm^3). The spores are collected from a 12-13-day-old culture.
The contaminated radish plants are incubated for 6-7 days at about 18° C., under a humid atmosphere.
Grading is carried out 6 to 7 days after the contamination, in comparison with the control plants.

[2] = system: Erysiphe graminis f. sp. tritici; assay: In vivo test on Erysiphe graminis f. sp. tritici (wheat powdery mildew); conditions: Blumeria graminis, wheat plants sprayed 24 hours before contamination, grading 7 to 14 days after contamination vs control plants, read-out: protection (good (at least 50%) to total)
Protocol: In Vivo Test on Erysiphe graminis f. sp. tritici (Wheat Powdery Mildew)
as §1
Wheat plants (Audace variety) in starter cups, sown on 50/50 peat soil-pozzolana substrate and grown at 12° C., are treated at the 1-leaf stage (10 cm tall) by spraying with the aqueous suspension described above.
as §2
After 24 hours, the plants are contaminated by dusting them with Erysiphe graminis f. sp. tritici spores, the dusting being carried out using diseased plants. Grading is carried out 7 to 14 days after the contamination, in comparison with the control plants.
Under these conditions, good (at least 50%) to total protection is observed at a dose of 330 ppm with the following compounds: A-4, B-4, B-8, C-2, C-3, C-12, D-4, F-1, H-1, H-2, H-4, H-20, I-3, J-1, J-2, J-3, J-19, J-20, J-31, J-37, J-40, J-55, J-57, J-58, J-59, J-61, K-1, M-5, M-6, R-1, R-10, R-26, R-29, V-7.

[3] = system: Botrytis cinerea; assay: In vivo test on Botrytis cinerea (cucumber grey mould); conditions: Botrytis cinerea; dose 330 ppm; cucumber plants sprayed 24 hours before contamination; grading 5/7 days after contamination vs control plants; read-out: protection (good (at least 50%) to total)
Protocol: In Vivo Test on Botrytis cinerea (Cucumber Grey Mould)
as §1
(§3) Cucumber plants (Marketer variety) in starter cups, sown on a 50/50 peat soil-pozzolana substrate and grown at 18-20° C., are treated at the cotyledon Z11 stage by spraying with the aqueous suspension described above. Plants, used as controls, are treated with an aqueous solution not containing the active material.
After 24 hours, the plants are contaminated by depositing drops of an aqueous suspension of Botrytis cinerea spores (150,000 spores per ml) on upper surface of the leaves. The spores are collected from a 15-day-old culture and are suspended in a nutrient solution composed of: • 20 g/L of gelatin • 50 g/L of cane sugar • 2 g/L of NH4NO3 • 1 g/L of KH2PO4
The contaminated cucumber plants are settled for 5/7 days in a climatic room at 15-11° C. (day/night) and at 80% relative humidity.
Grading is carried out 5/7 days after the contamination, in comparison with the control plants. Under these conditions, good (at least 50%) to total protection is observed at a dose of 330 ppm with the following compounds :B-7, B-8, B-13, B-14, C-3, C-12, C-13, C-14, C-15, C-16, D-4, D-5, E-4, H-1, H-2, H-4, H-7, H-9, H-22, J-1, J-2, J-3, J-19, J-31, J-32, J-33, J-34, J-35, J-37, J-39, J-43, J-44, R-1, R-10, R-23, R-24, R-26, R-31, V-1, V-8.

[4] = system: Pyrenophora teres; assay: In vivo test on Pyrenophora teres (barley net blotch); conditions: Pyrenophora teres, 288 h; dose 330 ppm; barley plants sprayed 24 hours before contamination; grading 12 days after contamination vs control plants; read-out: protection (good (at least 50%) to total)
Protocol: In Vivo Test on Pyrenophora teres (Barley Net Blotch)
as §1
as §3, with “Barley” for “Cucumber”, “(Express” for “(Marketer”, “12°” for “18-20°”, “1-leaf” for “cotyledon Z11”, “stage (10 cm tall)” for “stage”
After 24 hours, the plants are contaminated by spraying them with an aqueous suspension of Pyrenophora teres spores (12,000 spores per ml). The spores are collected from a 12-day-old culture The contaminated barley plants are incubated for 24 hours at about 20° C. and at 100% relative humidity, and then for 12 days at 80% relative humidity.

| Compound | pest or weed control at 330 ppm [1] | pest or weed control at 330 ppm [2] | pest or weed control at 330 ppm [3] | pest or weed control at 330 ppm [4] |
| --- | --- | --- | --- | --- |
| Cc1nn(C)cc1C(=O)NCCc1ncc(C(F)(F)F)cc1Cl [Compound J-2] | ≥ 50% | ≥ 50% | ≥ 50% | ≥ 50% |
| Cn1cc(C(=O)NCCc2ncc(C(F)(F)F)cc2Cl)c(C(F)F)n1 [Compound J-3] | ≥ 50% | ≥ 50% | ≥ 50% | ≥ 50% |
| Cc1nn(C)cc1C(=O)NCCc1ncc(Cl)cc1Cl [Compound J-19] | ≥ 50% | ≥ 50% | ≥ 50% | ≥ 50% |
| Cn1cc(C(=O)NCCc2nc(Cl)c(Cl)cc2Cl)c(C(F)(F)F)n1 [Compound J-20] | – | ≥ 50% | – | ≥ 50% |
| Cc1cc(Br)cnc1CCNC(=O)c1cn(C)nc1C(F)F [Compound J-32] | ≥ 50% | – | ≥ 50% | ≥ 50% |
| Cn1cc(C(=O)NCCc2ncc(Cl)cc2F)c(C(F)F)n1 [Compound J-33] | ≥ 50% | – | ≥ 50% | ≥ 50% |
| Cn1cc(C(=O)NCCc2nc(Cl)c(Cl)cc2Cl)c(C(F)F)n1 [Compound J-34] | – | – | ≥ 50% | ≥ 50% |
| Cn1cc(C(=O)NCCc2ncc(Cl)cc2Br)c(C(F)F)n1 [Compound J-39] | ≥ 50% | – | ≥ 50% | ≥ 50% |
| Cc1c(F)c(F)nc(CCNC(=O)c2cn(C)nc2C(F)F)c1F [Compound J-40] | – | ≥ 50% | – | ≥ 50% |
| Cn1cc(C(=O)NCCc2ncc(C(F)(F)F)cc2Cl)c(Cl)n1 [Compound J-57] | – | ≥ 50% | – | ≥ 50% |
| Cn1cc(C(=O)NCCc2ncc(C(F)(F)F)cc2Cl)c(I)n1 [Compound J-58] | – | ≥ 50% | – | ≥ 50% |
| Cc1cc(C(=O)NCCc2ncc(C(F)(F)F)cc2Cl)n(C(C)(C)C)n1 [Compound K-1] | – | ≥ 50% | – | – |
| Cc1onc(-c2c(Cl)cccc2Cl)c1C(=O)NCCc1ncc(C(F)(F)F)cc1Cl [Compound M-5] | ≥ 50% | ≥ 50% | – | – |
| Cc1onc(-c2c(F)cccc2Cl)c1C(=O)NCCc1ncc(C(F)(F)F)cc1Cl [Compound M-6] | ≥ 50% | ≥ 50% | – | – |
| O=C(NCCc1ncc(C(F)(F)F)cc1Cl)c1cccnc1Cl [Compound R-1] | ≥ 50% | ≥ 50% | ≥ 50% | ≥ 50% |
| Cc1ncccc1C(=O)NCCc1ncc(C(F)(F)F)cc1Cl [Compound R-10] | ≥ 50% | ≥ 50% | ≥ 50% | ≥ 50% |
| CON=C(C)c1cnc(CCNC(=O)c2cccnc2Cl)c(Cl)c1 [Compound R-23] | ≥ 50% | – | ≥ 50% | ≥ 50% |
| O=C(NCCc1ncc(Cl)cc1F)c1cccnc1Cl [Compound R-24] | ≥ 50% | – | ≥ 50% | – |
| O=C(NCCc1ncc(C(F)(F)F)cc1Cl)c1cccnc1Br [Compound R-26] | ≥ 50% | ≥ 50% | ≥ 50% | ≥ 50% |
